{"source": "patent US9884833B2", "about": "“Crystalline forms of neurotrophin mimetic compounds and their salts” (Pharmatrophix, Inc., priority 2012, dated 2018)", "type_in_all_cases": "physicochemical", "key": {"[1]": {"experiment": "Non-competitive slurry experiments (solid form stability)", "text": "In addition to the solvent recrystallization experiments, non-competitive slurry experiments were perfoi ined to search for new solid state forms. These experiments rely on solubility differences of different polymorphic forms (if the compound is polymorphic). […] Essentially, when a solid is mixed with solvent as slurry, a saturated solution eventually results. The solution is saturated with respect to the polymorphic form dissolved.\nIn addition, noncompetitive slurry experiments are often useful in identifying solvents that form solvates with the compound.\nThe slurry experiments were performed by exposing excess “starting” material (Form A) to neat (single) and binary solvent mixtures and agitating the resulting suspensions for several days at ambient temperature. The solids were vacuum filtered and analyzed by XRD to determine the resulting form. To avoid possible desolvation or physical change after isolation, the samples were not further dried before X-ray analysis."}, "[2]": {"experiment": "Hygroscopicity by dynamic vapor sorption (DVS)", "settings": "for water uptake: 0-55% RH; for water uptake (sorption maximum): 95% RH", "protocol": "Samples were analyzed using an automated dynamic vapor sorption analyzer. The sample (about 1-10 mg) was dried in the instrument 0% RH for 6 hours. The samples were subjected to 0 to 95% RH back to 5% RH at 25° C. in 5% RH steps.\nThe water content of the as received material was determined by Karl Fischer to be approximately 0.3 wt %. The moisture sorption-desorption isotherms (FIGS. 3A and 3B) were collected using dynamic vapor sorption (DVS) analysis. […] A hydrate may also form near 60% RH.\nFIGS. 3A and 3B show the moisture sorption-desorption isotherm and the kinetic plots for Form A. This sample may undergo hydrate formation ≧60% RH, although the shape of the isotherm is less than ideal.\nTo understand this further a fresh sample of starting material was staged at 60% RH in DVS for about 3 hours allowing sample to gain about 4 wt %. […] FIG. 21."}, "[3]": {"experiment": "Visual solubility measurement in various solvents", "protocol": "About 100 mg of disulfate starting material was placed into each of 26 vials. Solvents were added and the vials were stirred for 30 minutes, followed by visual observation for remaining solids. Additional solvent was incrementally added until the solids were dissolved, or a maximum volume of solvent was added and the experiment was terminated. This solubility data was used in designing experiments, selecting the solvents, anti-solvents for crystallization and slurry experiments, sample consumption, etc."}, "[4]": {"experiment": "Static vapor sorption studies in humidity chambers", "settings": "for weight gain by TGA: after 40 days", "text": "Static vapor sorption studies were done in hermetic humidity chambers using saturated salts, or environmental humidity chambers to control the temperature and humidity. Data collected during dynamic vapor sorption studies often are not at theiniodynamic equilibrium. To gain a better understanding of the water uptake and the critical humidity level of the API, samples of the starting material (Form A) were monitored in static humidity chambers to allow the sample to equilibrate with aerial moisture.\nIn these studies, water vapor sorption was determined gravimetrically (or by Thermogravimetric analysis) by storing samples in open aluminum dishes. Samples were stored at 8 different humidities (23, 33, 43, 53, 60, 69, 75 and 84% RH) at ambient temperature. A few hundred milligrams of Form A was staged at each humidity condition.\nThe samples were examined periodically either by recording the weight change or by monitoring the water content by Karl Fischer or TGA, and/or XRD pattern. […] The samples stored at humidities higher than 60% RH deliquesced after 10 days."}, "[5]": {"settings": "DVS sorption, 25° C., listed as 2-amino-3-methyl-N-(2-morpholinoethyl)-pentanamide disulfate"}, "[6]": {"settings": "stored at 60% RH, then dried at ~45° C. under vacuum for about 15 days"}}}
{"substance": "2-amino-3-methyl-N-(2-morpholinoethyl)-pentanamide disulfate [Form A]", "values": [{"measurement": "Final Form", "setting": "[1]; slurry in DMA, 27 days, ambient temperature, by XRD", "result": "monosulfate"}, {"measurement": "Final Form", "setting": "[1]; slurry in DMF/2-propanol (1/1), 19 days", "result": "monosulfate"}, {"measurement": "Final Form", "setting": "[1]; slurry in DMF/2-propanol (1/2), 19 days", "result": "monosulfate"}, {"measurement": "Final Form", "setting": "[1]; slurry in DMF/2-propanol (2/1), 19 days", "result": "monosulfate"}, {"measurement": "Final Form", "setting": "[1]; slurry in DMF/acetone (1/1), 19 days", "result": "monosulfate"}, {"measurement": "Final Form", "setting": "[1]; slurry in DMF/acetone (1/2), 19 days", "result": "monosulfate"}, {"measurement": "Final Form", "setting": "[1]; slurry in DMF/acetone (2/1), 19 days", "result": "monosulfate"}, {"measurement": "Final Form", "setting": "[1]; slurry in DMF/heptane (1/1), 19 days", "result": "monosulfate"}, {"measurement": "Final Form", "setting": "[1]; slurry in DMF/heptane (1/2), 19 days", "result": "monosulfate"}, {"measurement": "Final Form", "setting": "[1]; slurry in DMF/heptane (2/1), 19 days", "result": "monosulfate"}, {"measurement": "Final Form", "setting": "[1]; slurry in water, duration n/a", "result": "all dissolved"}, {"measurement": "water remaining in desorption phase", "setting": "[2]; DVS desorption, 65% RH, 25° C.", "result": "~23", "unit": "wt %"}, {"measurement": "mass above original value at end of desorption cycle", "setting": "[2]; DVS desorption", "result": "~4", "unit": "wt %"}, {"measurement": "mass above original value at end of desorption cycle", "setting": "[2]; DVS desorption, listed as 2-amino-3-methyl-N-(2-morpholinoethyl)-pentanamide disulfate", "result": "about 4 wt %"}, {"measurement": "water uptake", "setting": "[2]; DVS sorption, 25° C.", "result": 2, "unit": "wt %"}, {"measurement": "water uptake", "setting": "[2]; [5]", "result": "did not sorb much water"}, {"measurement": "water uptake (total)", "setting": "[2]; DVS sorption, 65% RH, 25° C.", "result": "~23", "unit": "wt %"}, {"measurement": "water uptake (sorption maximum)", "setting": "[2]; DVS sorption, 25° C.", "result": "approximately 225 wt %"}, {"measurement": "water uptake (sorption maximum)", "setting": "[2]; [5]", "result": "up to 225 wt %"}, {"measurement": "behaviour at high humidity", "setting": "[2]; DVS, high humidity, followed by glass formation upon evaporation", "result": "Apparent deliquescence"}, {"measurement": "weight gain", "setting": "[2]; fresh sample staged at 60% RH in DVS for about 3 hours", "result": "about 4 wt %"}, {"measurement": "relative humidity at which hydrate forms", "setting": "[2]; from DVS isotherm, 25° C.", "result": "~60", "unit": "% RH"}, {"measurement": "Approx. Solubility", "setting": "[3]; 1-butanol", "result": "≦1.67 mg/mL"}, {"measurement": "Approx. Solubility", "setting": "[3]; 1-propanol", "result": "≦1.67 mg/mL"}, {"measurement": "Approx. Solubility", "setting": "[3]; 2-butanol", "result": "≦1.67 mg/mL"}, {"measurement": "Approx. Solubility", "setting": "[3]; 2-propanol", "result": "≦1.67 mg/mL"}, {"measurement": "Approx. Solubility", "setting": "[3]; acetone", "result": "≦1.67 mg/mL"}, {"measurement": "Approx. Solubility", "setting": "[3]; acetonitrile", "result": "≦1.67 mg/mL"}, {"measurement": "Approx. Solubility", "setting": "[3]; butylamine", "result": "≦1.67 mg/mL"}, {"measurement": "Approx. Solubility", "setting": "[3]; chloroform", "result": "≦1.67 mg/mL"}, {"measurement": "Approx. Solubility", "setting": "[3]; dichloromethane", "result": "≦1.67 mg/mL"}, {"measurement": "Approx. Solubility", "setting": "[3]; diisopropylamine", "result": "≦1.67 mg/mL"}, {"measurement": "Approx. Solubility", "setting": "[3]; dimethylacetamide (DMA)", "result": "≦1.67 mg/mL"}, {"measurement": "Approx. Solubility", "setting": "[3]; dimethylformamide (DMF)", "result": "~1670", "unit": "µg/mL"}, {"measurement": "Approx. Solubility", "setting": "[3]; ethanol", "result": "≧50 mg/mL"}, {"measurement": "Approx. Solubility", "setting": "[3]; ethyl acetate (EtOAc)", "result": "≦1.67 mg/mL"}, {"measurement": "Approx. Solubility", "setting": "[3]; heptane", "result": "≦1.67 mg/mL"}, {"measurement": "Approx. Solubility", "setting": "[3]; isopropyl acetate", "result": "≦1.67 mg/mL"}, {"measurement": "Approx. Solubility", "setting": "[3]; isopropyl ether", "result": "≦1.67 mg/mL"}, {"measurement": "Approx. Solubility", "setting": "[3]; methanol, stirred 30 minutes", "result": "≧100 mg/mL"}, {"measurement": "Approx. Solubility", "setting": "[3]; methyl ethyl ketone (MEK)", "result": "≦1.67 mg/mL"}, {"measurement": "Approx. Solubility", "setting": "[3]; methyl-t-butyl ether (MTBE)", "result": "≦1.67 mg/mL"}, {"measurement": "Approx. Solubility", "setting": "[3]; nitromethane", "result": "≦1.67 mg/mL"}, {"measurement": "Approx. Solubility", "setting": "[3]; pyridine", "result": "≦1.67 mg/mL"}, {"measurement": "Approx. Solubility", "setting": "[3]; tetrahydrofuran (THF)", "result": "≦1.67 mg/mL"}, {"measurement": "Approx. Solubility", "setting": "[3]; toluene", "result": "≦1.67 mg/mL"}, {"measurement": "Approx. Solubility", "setting": "[3]; trifluoroethanol", "result": "≧50 mg/mL"}, {"measurement": "Approx. Solubility", "setting": "[3]; water", "result": "≧100 mg/mL"}, {"measurement": "weight gain by TGA", "setting": "[4]; stored at 43% RH", "result": "approximately 1.0 wt %"}, {"measurement": "weight gain by TGA", "setting": "[4]; stored at 53% RH", "result": "~1.3", "unit": "wt %"}, {"measurement": "state after storage", "setting": "[4]; stored at 60% RH, after 27 days", "result": "mostly deliquesced"}, {"measurement": "weight gain", "setting": "[4]; stored at 60% RH, in 20 days", "result": "approximately 6 wt %"}, {"measurement": "XRD after storage and drying", "setting": "[4]; [6]", "result": "identical to starting material"}, {"measurement": "weight by TGA after drying", "setting": "[4]; [6]", "result": "approximately 3.3 wt %"}, {"measurement": "state after storage", "setting": "[4]; stored at humidities higher than 60% RH, ambient temperature, after 10 days", "result": "deliquesced"}, {"measurement": "weight gain", "setting": "[4]; stored at humidities lower than 43% RH, ambient temperature, after 15 days", "result": "minimaUno weight gain"}]}
